In US20240041754A1, “NOVEL SACCHAROMYCES CEREVISIAE STRAIN AND USE THEREOF” (LG HOUSEHOLD & HEALTH CARE LTD., priority 2020, published 2024):

Legend:
Human dermal fibroblasts = assay: Collagen synthesis enhancement, procollagen type I C-peptide (PIP) EIA kit; format: cell-based; settings: 10 ppb, 48 hours, vs negative control (DMEM containing 0% serum)
Procedure: Human dermal fibroblasts were treated with each sample for 48 hours. Thereafter, a collagen synthesis rate was measured by detecting collagen using a method of a procollagen type I C-peptide (PIP) EIA kit. The collagen synthesis efficiency of the sample was expressed as an increase rate (%) of collagen synthesis, which was calculated and quantified in comparison to a negative control group (DMEM containing 0% serum).
Increase rate of collagen synthesis (%)=(Collagen synthesis rate of Sample−Collagen synthesis rate of Negative control)/Collagen synthesis rate of Negative control

[1] = tested on: Human keratinocytes (HaCaT); assay: Hyaluronic acid synthesis enhancement, Quantikine ELISA Hyaluronan; format: cell-based; settings: 1 ppm, 72 hours, vs negative control (DMEM containing 0% serum)
Procedure: Human keratinocytes (HaCaT) were treated with each sample for 72 hours. Thereafter, a hyaluronic acid synthesis rate was derived by measuring hyaluronic acid using R&D systems' Quantikine ELISA Hyaluronan. The skin moisturizing ability of the sample was expressed as an increase rate (%) of hyaluronic acid synthesis, which was calculated and quantified in comparison to a negative control group (treated with DMEM containing 0% serum).
The calculation formula of the increase rate of hyaluronic acid synthesis, each sample, and the results thereof are shown in Table 6 below.
Increase rate of hyaluronic acid synthesis (%)=(Hyaluronic acid synthesis rate of Sample−Hyaluronic acid synthesis rate of Negative control)/Hyaluronic acid synthesis rate of Negative control

Compound	Increase rate of collagen synthesis (Human dermal fibroblasts) [%]	Increase rate of hyaluronic acid synthesis [1] [%]
TGF-β	15.2	
CC1=C(/C=C/C(C)=C/C=C/C(C)=C/C(=O)O)C(C)(C)CCC1 [Retinoic acid]		13.8
